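Protocol summary: plate cells (96-well), add compound at 5 concentrations, incubate 48 h, interpolate endpoints linearly. Abbreviation: GI50, concentration required for 50% inhibition of growth.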 Active and inactive are the calls of the source. No stated cut-off is given here; in the data, active = GI50 up to about 1.1 µM and inactive = higher.
What was measured:
Experiment in all cases: inhibition of tumour cell growth, NCI panel, 48 h
EKVX = test system: EKVX
KM12 = test system: KM12
DLD-1 = test system: DLD-1
SK-OV-3 = test system: SK-OV-3
M19-MEL = test system: M19-MEL
SNB-78 = test system: SNB-78
TK-10 = test system: TK-10
SF-295 = test system: SF-295
CCRF-CEM = test system: CCRF-CEM
COLO 205 = test system: COLO 205
SF-539 = test system: SF-539
A498 = test system: A498
IGROV-1 = test system: IGROV-1
OVCAR-3 = test system: OVCAR-3
ACHN = test system: ACHN
786-0 = test system: 786-0
OVCAR-5 = test system: OVCAR-5
MDA-MB-231 = test system: MDA-MB-231
SN12C = test system: SN12C
UACC-257 = test system: UACC-257
LXFL 529 = test system: LXFL 529
NCI-H522 = test system: NCI-H522
HCT-116 = test system: HCT-116
PC-3 = test system: PC-3
DMS-114 = test system: DMS-114
LOX IMVI = test system: LOX IMVI
SK-MEL-5 = test system: SK-MEL-5
BT-549 = test system: BT-549
NCI-H226 = test system: NCI-H226
SW-620 = test system: SW-620
Malme-3M = test system: Malme-3M
SNB-19 = test system: SNB-19
HOP-62 = test system: HOP-62
NCI/ADR-RES = test system: NCI/ADR-RES
MOLT-4 = test system: MOLT-4
NCI-H23 = test system: NCI-H23
RPMI-8226 = test system: RPMI-8226
UO-31 = test system: UO-31
HCC 2998 = test system: HCC 2998
Hs-578T = test system: Hs-578T
CAKI-1 = test system: CAKI-1
RXF 393 = test system: RXF 393
HOP-18 = test system: HOP-18
DU-145 = test system: DU-145
NCI-H460 = test system: NCI-H460
U-251 = test system: U-251
MDA-N = test system: MDA-N
MDA-MB-435 = test system: MDA-MB-435
UACC-62 = test system: UACC-62
OVCAR-8 = test system: OVCAR-8
HOP-92 = test system: HOP-92
SNB-75 = test system: SNB-75
A549 = test system: A549
XF498 = test system: XF498
SK-MEL-2 = test system: SK-MEL-2
SK-MEL-28 = test system: SK-MEL-28
HT-29 = test system: HT-29
HL-60 = test system: HL-60
K562 = test system: K562
MCF7 = test system: MCF7
HCT-15 = test system: HCT-15
OVCAR-4 = test system: OVCAR-4
SF-268 = test system: SF-268
M14 = test system: M14
KM-20L2 = test system: KM-20L2
SR = test system: SR

Question: CC(C)Cc1ccc(C(C)/C=C2\CCC(CN(C)C)C2=O)cc1 (stereo unspecified) was tested. Which GI50 (EKVX) did it give?
Answer: Its GI50 is 19.9 µM (inactive).

Question: What about the GI50 (KM12) of the same molecule?
Answer: Its GI50 is 5.27 µM (inactive).

Question: What about the GI50 (DLD-1) of the same molecule?
Answer: Its GI50 is 10.7 µM (inactive).

Question: What about the GI50 (SK-OV-3) of the same molecule?
Answer: Its GI50 is 19.5 µM (inactive).

Question: What about the GI50 (M19-MEL) of the same molecule?
Answer: The GI50 was 17.6 µM (inactive).

Question: What about the GI50 (SNB-78) of the same molecule?
Answer: Its GI50 is 17.5 µM (inactive).

Question: And the GI50 (TK-10)?
Answer: Its GI50 is 9.23 µM (inactive).

Question: And the GI50 (SF-295)?
Answer: The GI50 was 14.7 µM (inactive).

Question: And the GI50 (CCRF-CEM)?
Answer: Its GI50 is 3.92 µM (inactive).

Question: And the GI50 (COLO 205)?
Answer: The GI50 was 11.6 µM (inactive).

Question: And the GI50 (SF-539)?
Answer: Its GI50 is 16.5 µM (inactive).

Question: What about the GI50 (A498) of the same molecule?
Answer: The GI50 was 19.5 µM (inactive).

Question: What about the GI50 (IGROV-1) of the same molecule?
Answer: The GI50 was 9.73 µM (inactive).

Question: What about the GI50 (OVCAR-3) of the same molecule?
Answer: The GI50 was 12.7 µM (inactive).

Question: And the GI50 (ACHN)?
Answer: The GI50 was 19.4 µM (inactive).

Question: And the GI50 (786-0)?
Answer: Its GI50 is 2.96 µM (inactive).

Question: And the GI50 (OVCAR-5)?
Answer: The GI50 was 23 µM (inactive).

Question: What about the GI50 (MDA-MB-231) of the same molecule?
Answer: The GI50 was 2.28 µM (inactive).

Question: What about the GI50 (SN12C) of the same molecule?
Answer: The GI50 was 10 µM (inactive).

Question: What about the GI50 (UACC-257) of the same molecule?
Answer: The GI50 was 14.8 µM (inactive).

Question: What about the GI50 (LXFL 529) of the same molecule?
Answer: Its GI50 is 9.35 µM (inactive).

Question: What about the GI50 (NCI-H522) of the same molecule?
Answer: The GI50 was 7.31 µM (inactive).

Question: What about the GI50 (HCT-116) of the same molecule?
Answer: Its GI50 is 7.05 µM (inactive).

Question: What about the GI50 (PC-3) of the same molecule?
Answer: The GI50 was 10.5 µM (inactive).

Question: What about the GI50 (DMS-114) of the same molecule?
Answer: The GI50 was 19.2 µM (inactive).

Question: What about the GI50 (LOX IMVI) of the same molecule?
Answer: Its GI50 is 6.97 µM (inactive).

Question: And the GI50 (SK-MEL-5)?
Answer: The GI50 was 11.7 µM (inactive).

Question: And the GI50 (BT-549)?
Answer: The GI50 was 17.1 µM (inactive).

Question: And the GI50 (NCI-H226)?
Answer: The GI50 was 20.2 µM (inactive).

Question: And the GI50 (SW-620)?
Answer: Its GI50 is 6.82 µM (inactive).

Question: And the GI50 (Malme-3M)?
Answer: The GI50 was 17 µM (inactive).

Question: And the GI50 (SNB-19)?
Answer: The GI50 was 12.4 µM (inactive).

Question: And the GI50 (HOP-62)?
Answer: The GI50 was 9.23 µM (inactive).

Question: What about the GI50 (NCI/ADR-RES) of the same molecule?
Answer: Its GI50 is 5.89 µM (inactive).

Question: What about the GI50 (MOLT-4) of the same molecule?
Answer: The GI50 was 2.64 µM (inactive).

Question: And the GI50 (NCI-H23)?
Answer: The GI50 was 12.6 µM (inactive).

Question: What about the GI50 (RPMI-8226) of the same molecule?
Answer: The GI50 was 1.56 µM (inactive).

Question: What about the GI50 (UO-31) of the same molecule?
Answer: Its GI50 is 10.9 µM (inactive).

Question: What about the GI50 (HCC 2998) of the same molecule?
Answer: Its GI50 is 16.8 µM (inactive).

Question: And the GI50 (Hs-578T)?
Answer: Its GI50 is 2.74 µM (inactive).

Question: What about the GI50 (CAKI-1) of the same molecule?
Answer: Its GI50 is 17.5 µM (inactive).

Question: And the GI50 (RXF 393)?
Answer: Its GI50 is 20.1 µM (inactive).

Question: What about the GI50 (HOP-18) of the same molecule?
Answer: The GI50 was 17.6 µM (inactive).

Question: What about the GI50 (DU-145) of the same molecule?
Answer: Its GI50 is 11.4 µM (inactive).

Question: What about the GI50 (NCI-H460) of the same molecule?
Answer: Its GI50 is 20 µM (inactive).

Question: And the GI50 (U-251)?
Answer: The GI50 was 16.7 µM (inactive).

Question: What about the GI50 (MDA-N) of the same molecule?
Answer: Its GI50 is 10.2 µM (inactive).

Question: And the GI50 (MDA-MB-435)?
Answer: Its GI50 is 7.16 µM (inactive).

Question: And the GI50 (UACC-62)?
Answer: The GI50 was 17.5 µM (inactive).

Question: And the GI50 (OVCAR-8)?
Answer: The GI50 was 9.38 µM (inactive).

Question: And the GI50 (HOP-92)?
Answer: Its GI50 is 19 µM (inactive).

Question: What about the GI50 (SNB-75) of the same molecule?
Answer: Its GI50 is 14.1 µM (inactive).

Question: What about the GI50 (A549) of the same molecule?
Answer: The GI50 was 27.7 µM (inactive).

Question: What about the GI50 (XF498) of the same molecule?
Answer: Its GI50 is 20 µM (inactive).

Question: And the GI50 (SK-MEL-2)?
Answer: The GI50 was 14.4 µM (inactive).

Question: What about the GI50 (SK-MEL-28) of the same molecule?
Answer: The GI50 was 15.8 µM (inactive).

Question: And the GI50 (HT-29)?
Answer: Its GI50 is 13.8 µM (inactive).

Question: And the GI50 (HL-60)?
Answer: Its GI50 is 5.61 µM (inactive).

Question: What about the GI50 (K562) of the same molecule?
Answer: The GI50 was 2.86 µM (inactive).

Question: What about the GI50 (MCF7) of the same molecule?
Answer: Its GI50 is 4.43 µM (inactive).

Question: What about the GI50 (HCT-15) of the same molecule?
Answer: The GI50 was 9.18 µM.

Question: What about the GI50 (OVCAR-4) of the same molecule?
Answer: The GI50 was 17 µM (inactive).

Question: What about the GI50 (SF-268) of the same molecule?
Answer: The GI50 was 11.6 µM (inactive).

Question: And the GI50 (M14)?
Answer: The GI50 was 12.9 µM (inactive).

Question: And the GI50 (KM-20L2)?
Answer: The GI50 was 24.3 µM (inactive).

Question: What about the GI50 (SR) of the same molecule?
Answer: Its GI50 is 3.2 µM (inactive).
